Data published in patent publication US20230233541A1, “SUBSTITUTED BENZAMIDES AS MODULATORS OF TREX1” (Constellation Pharmaceuticals, Inc., priority 2020, published 2023).

Tests used:
full length human TREX1 = target: T1, full length human TREX1 (Homo sapiens, UniProt Q9NSU2); test: TREX1 Biochemical Assay (fluorescence assay, degradation of dsDNA substrate); conditions: 150 pM TREX1, 60 nM dsDNA substrate, 25 minutes at room temperature; read-out: hTREX1 EC50
T1 construct: N-terminally His-Tev tagged full length human TREX1; His-Tev (His tag with TEV protease site) (N); made in house; host or cells: E. coli
T1 sequence (Q9NSU2 1-314): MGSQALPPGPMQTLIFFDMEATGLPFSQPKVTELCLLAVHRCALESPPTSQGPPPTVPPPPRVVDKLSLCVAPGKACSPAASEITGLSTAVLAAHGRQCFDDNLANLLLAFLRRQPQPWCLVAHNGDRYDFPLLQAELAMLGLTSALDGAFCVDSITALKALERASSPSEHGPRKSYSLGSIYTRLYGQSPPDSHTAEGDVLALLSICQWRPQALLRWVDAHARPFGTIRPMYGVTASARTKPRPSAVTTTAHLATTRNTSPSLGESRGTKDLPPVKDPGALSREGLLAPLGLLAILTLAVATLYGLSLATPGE
How it was run: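 E. coli-expressed His-Tev-tagged full-length TREX1 (150 pM) with 60 nM quenched-fluorophore dsDNA in Tris pH 7.4, 150 mM NaCl, 100 mM MgCl2, 1% DMSO, 25 min room temperature, 10-point dose-response. EDTA stop; fluorescence 615 nm (ex 570 nm); IC50 from four-parameter fit against pre-quenched and no-inhibitor controls.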

[1] = target: T2, human TREX2 (residues M44-A279) (Homo sapiens, UniProt Q9BQ50); test: TREX2 Biochemical Assay (fluorescence assay, degradation of dsDNA substrate); conditions: 2.5 nM TREX2, 60 nM dsDNA substrate, 25 minutes at room temperature; read-out: hTREX2 EC50
T2 construct: human TREX2 (residues M44-A279, expressed in E. coli); His-Tev (His tag with TEV protease site) (N); made in house; host or cells: E. coli
T2 sequence (Q9BQ50 44-279 isoform Q9BQ50-1): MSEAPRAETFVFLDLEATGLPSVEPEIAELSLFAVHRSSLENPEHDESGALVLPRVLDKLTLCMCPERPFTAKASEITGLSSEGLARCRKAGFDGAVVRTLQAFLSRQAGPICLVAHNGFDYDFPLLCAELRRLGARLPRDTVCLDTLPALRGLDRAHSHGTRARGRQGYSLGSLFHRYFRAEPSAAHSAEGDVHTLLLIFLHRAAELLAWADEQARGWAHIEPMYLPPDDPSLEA
How it was run: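 His-Tev-tagged human TREX2 (M44-A279, E. coli-expressed) at 2.5 nM final, with 60 nM TEX615/quencher-labelled dsDNA in pH 7.4 Tris buffer with MgCl2 and 1.0% DMSO, 10-point dose-response, 25 min at room temperature, then EDTA quench. Fluorescence read at 615 nm (ex 570 nm). IC50 from four-parameter fit against pre-quenched and no-inhibitor controls.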

Row | Compound | EC50 (full length human TREX1) [nM] | EC50 [1] [µM]
1 | O=C(O)c1ccc(CN(Cc2ccc(Cl)cc2Cl)C(=O)c2cccc(F)c2)cn1 [Compound 142, 5-({N-[(2,4-dichlorophenyl)methyl]-1-(3-fluorophenyl)formamido}methyl)pyridine-2-carboxylic acid] | 100 to 1000 | 10 to 100
2 | O=C(C1CC1)N(Cc1cccnc1)Cc1ccc(Cl)cc1Cl [Compound 81] | > 10000 | > 100
3 | O=C(c1ccc(F)c(F)c1)N(Cc1cccnc1)Cc1ccc(Cl)cc1Cl [Compound 101] | 1000 to 10000 | > 100
4 | C[C@H](c1ccc(C(N)=O)cc1Cl)N(Cc1cccnc1)C(=O)c1cccc(F)c1 (single isomer, unassigned) [Compound 163] | 100 to 1000 | 10 to 100
5 | O=C(c1cc(F)cc(F)c1)N(Cc1ccc(-c2nnn[nH]2)nc1)Cc1ccccc1Cl [Compound 169] | 100 to 1000 | 10 to 100
6 | O=C(c1ccccc1F)N(Cc1cccnc1)Cc1cc(Cl)cc(Cl)c1 [Compound 37] | > 10000 | > 100
7 | O=C(c1cc(F)c(F)cc1F)N(Cc1cccnc1)Cc1ccc(Cl)cc1Cl [Compound 120] | > 10000 | > 100
8 | COc1cccc(CN(Cc2ccc(NC(C)=O)nc2)C(=O)c2cccc(F)c2)c1Cl [Compound 213, N-((6-acetamidopyridin-3-yl)methyl)-N-(2-chloro-3-methoxybenzyl)-3-fluorobenzamide] | > 10000 | > 100
9 | O=C(c1cc(F)cc(F)c1)N(Cc1ccc(-n2cccn2)nc1)Cc1ccc(Cl)cc1Cl [Compound 175] | 100 to 1000 | > 100
10 | O=C(c1cccc(F)c1)N(Cc1cnccn1)Cc1ccc(Cl)cc1Cl [Compound 111] | 1000 to 10000 | > 100
11 | O=C(CCCCc1ccccc1)N(Cc1cccnc1)Cc1ccc(Cl)cc1Cl [Compound 93] | > 10000 | > 100
12 | CN(C)c1cc(CN(Cc2cccc(Cl)c2Cl)C(=O)c2cc(F)cc(F)c2)cnc1C(=O)O [Compound 243] | 1000 to 10000 | 10 to 100
13 | O=C(c1cccc(F)c1)N(Cc1cncnc1)Cc1ccc(Cl)cc1Cl [Compound 106] | 1000 to 10000 | > 100
14 | O=C(c1cccc(F)c1)N(Cc1cccnn1)Cc1ccc(Cl)cc1Cl [Compound 107] | > 10000 | > 100
15 | NC(=O)Cc1ccc(CN(Cc2ccc(Cl)cc2Cl)C(=O)c2cc(F)cc(F)c2)cn1 [Compound 217] | 100 to 1000 | > 100
16 | CCC(=O)N(Cc1cccnc1)Cc1ccc(Cl)cc1Cl [Compound 88] | > 10000 | > 100
17 | COc1cc(C(=O)N(Cc2cccnc2)Cc2cc(Cl)cc(Cl)c2)cc(Br)c1OC [Compound 47] | > 10000 | > 100
18 | O=C(c1cc(Cl)c(O)c(Cl)c1)N(Cc1cccnc1)Cc1cc(Cl)cc(Cl)c1 [Compound 49] | > 10000 | > 100
19 | O=C(c1cocn1)N(Cc1cccnc1)Cc1ccc(Cl)cc1Cl [Compound 113] | > 10000 | > 100
20 | N#Cc1ccccc1CN(Cc1ccc(C(=O)O)nc1)C(=O)c1cc(F)cc(F)c1 [Compound 192] | > 10000 | > 100
21 | COC(=O)C[C@H](c1ccc(Cl)cc1Cl)N(Cc1cccnc1)C(=O)c1cc(F)cc(F)c1 [Compound 216] | 1000 to 10000 | 10 to 100
22 | O=C(c1cc(F)cc(F)c1)N(Cc1ccc(-c2noc(=O)[nH]2)nc1)Cc1cccc(Cl)c1Cl [Compound 262] | 100 to 1000 | 1 to 10
23 | CC[C@@H](c1cccc(OC)c1Cl)N(Cc1ccc(C(=O)O)nc1)C(=O)c1cc(F)cc(F)c1 [Compound 167] | < 100 | 1 to 10
24 | COC(=O)C[C@@H](c1ccc(Cl)cc1Cl)N(Cc1cccnc1)C(=O)c1cc(F)cc(F)c1 [Compound 215] | 1000 to 10000 | 10 to 100
25 | O=C(c1ccc(F)c(Cl)c1)N(Cc1cccnc1)Cc1cc(Cl)cc(Cl)c1 [Compound 65] | 1000 to 10000 | > 100
